Laboratory results as given in a melting point compilation (Tetko et al.; mined from patent text by program, amines drawn as free bases though some values may be those of a salt).

Row | melting point [°C] | SMILES
1 | 208 to 210 | C#CC12CC3CC(C1)CC(C14CC5CC(CC(C#C)(C5)C1)C4)(C3)C2
2 | 183 to 185 | CCCCCc1nc2cc(Cl)c(S(N)(=O)=O)cc2[nH]1
3 | 121 to 123 | CN1CCCC1CCN1CCN(CCC2CCCN2C)C1=C(C#N)C#N (centres undefined)
4 | 134 to 137 | CCCOc1ccc(C2=NN(C(=O)Nc3ccc(C(F)(F)F)cc3)CC2(C)C(=O)OC)cc1 (centres undefined)
5 | 88 to 89 | O=C(c1nc2ccc(O)cc2[nH]1)N1CCC(=Cc2ccc(Cl)cc2)CC1
6 | 171 to 174 | Cc1ccc(N)c(C(N)=O)c1
7 | 211 to 213 | N#Cc1ccc(Cn2cncn2)cc1-c1ccc(O)cc1
8 | 79 to 81 | CCCCCCCCCCCCCCCCSCC(CNS(=O)(=O)CCCI)NC(=O)OC (centres undefined)
9 | 68.8 to 70.9 | OCC[C@H](O)COC(c1ccccc1)(c1ccccc1)c1ccccc1
10 | 47 to 50 | O=C(CC=C(Cl)Cl)Oc1ccc(F)cc1
11 | 195 | O=S(CCN1C=CC=CC=C1)c1ccccc1 (centres undefined)
12 | 162 to 164 | CCOc1cc(Nc2cccc3c2C(=O)N(C2CCC(=O)NC2=O)C3=O)ccc1OC (centres undefined)
13 | 138 to 140 | CC[C@@H](NC(=O)N1CC(=O)NC[C@@H](Cc2cc(Cl)ccc2OC)C1=O)c1cncc(C(=O)O)c1
14 | 126 to 128 | CCOC(=O)c1cccc(NC(=O)N2CCn3c(c(C(N)=O)c(Cl)c3-c3ccccc3)C2)c1
15 | 213 to 214 | CCn1c2ccccc2c2cc(NC(=O)OC)ncc21
16 | 143 | COc1ccc(C(=O)N(C(=O)c2ccc(OC)cc2)c2nc3ccc(N(C)C)cc3c(NCc3ccco3)c2C#N)cc1
17 | 108 to 109 | Cc1ccc(C2OC(=O)NC2=O)s1 (centres undefined)
18 | 221 | Oc1cccc(C=C2c3ccc(Cl)cc3CCc3cccnc32)c1

Row | melting point [°C] | SMILES
19 | 120 to 122 | COCCc1ccc(OCC(O)C(C)(C)N)cc1 (centres undefined)
20 | 136 to 137 | CC(C)C(C)CCC(C)C1CCC2C3CCC4CCCCC4(C)C3CCC12C (centres undefined)
21 | 69 to 70 | CC1(C)CCC2(Cc3ccc(Cl)cc3)OC2C1=O (centres undefined)
22 | 117 to 121 | CCOC(=O)C1=NCC(C)(C)c2cc(OC)c3c(c21)CC(C)(C)O3
23 | 103 to 106 | CCOC(=O)C1=C(O)c2ccccc2N(c2ccccc2)C1
24 | 133 to 135 | CCOC(=O)c1ccc(-c2nc(COc3ccc(COc4nn(-c5ccccc5)cc4/C=C\c4csc(CC)n4)cc3OC)c(C)o2)o1
25 | 105 to 107 | Nc1noc2cccc(OCCBr)c12
26 | 139 to 140 | CC(C)(C)c1ccc(CC[C@@H](N)[C@H](O)c2ccc(F)cc2)cc1 (racemic)
27 | 92 to 94 | COc1cc(C)c(C(=O)c2c(OC)ncc(Cl)c2C)c(OC)c1OC
28 | 123 | O=C(O)CC1Cc2cccc3cccc1c23 (centres undefined)
29 | 122 to 123 | CC(=O)SCC(Cc1ccccc1)C(=O)Nc1cccc(C(=O)NCC(=O)OCc2ccccc2)c1 (centres undefined)
30 | 206 | Cn1cc(-c2ncc(OC3SCC(O)C(O)C3O)cc2F)cn1 (centres undefined)
31 | > 300 | Cc1[nH]n(Cc2cccc(C(=O)O)c2)c2nc(-c3ccncc3)nc(=O)c1-2
32 | 176 to 178 | Oc1ccc(O[C@@H]2CCNC[C@H]2O)cc1 (relative stereo)
33 | 293 to 295 | COc1ccc2c(C(=O)O)cc3cc4c(cc3c2c1)OCO4
34 | 240 to 250 | O=C(c1cc(O)c(O)c([N+](=O)[O-])c1)c1nc2ccccc2[nH]1
35 | 151 to 153 | OCc1ccccc1NCc1c(O)ccc2c1CCCO2

Row | SMILES | melting point [°C]
36 | CCN(CC)C(=O)CN1C(=O)C(NC(=O)Nc2cccc(OC)c2)N=C(c2ccccc2)c2ccccc21 (centres undefined) | 222 to 224
37 | CN(C)C1(Cc2ccccc2)CC=C(c2[nH]c3ccccc3c2CCc2ccncc2)CC1 (centres undefined) | 154 to 157
38 | CN1Cc2c(C(=O)OCC3CCC3)ncn2-c2cccc(Cl)c2C1=O | 181 to 182
39 | O=C1c2c(ccc(F)c2Cl)-n2cnc(-c3cccc(Cl)c3)c2[C@@H]2CCCN12 | 238 to 239
